# Assay results as given in US9085562B2, “6-alkyl-N-(pyridin-2-yl)-4-aryloxypicolinamide analogs as mGluR5 negative allosteric modulators and methods of making and using the same” (Vanderbilt University, priority 2011, dated 2015).
# Biological target: T1, rat mGluR5 (Rattus norvegicus, UniProt P31424)
# T1 construct: expressed in transfected cells
# Assay: mGluR5 calcium mobilization assay (HEK 293A cells, FDSS)
# Assay type: cell-based
# Conditions: HEK cells transfected with rat mGluR5; antagonism of glutamate EC80 response; Table 1
# Protocol: Human embryonic kidney (HEK) cells transfected with rat or human mGluR5 were plated in clear bottom assay plates for assay in a Functional Drug Screening System (FDSS). The cells were loaded with a Ca2+-sensitive fluorescent dye (e.g., Fluo-4), and the plates were washed and placed in the FDSS instrument. Test compound was applied to cells 3 seconds after baseline readings were taken. Cells were incubated with the test compounds for 140 seconds and then stimulated with an EC20 concentration of an mGluR5 agonist (e.g., glutamate, 3,5-dihydroxyphenylglycine, or quisqualate); 60-80 seconds later an EC80 concentration of agonist was added and readings taken for an additional 40 seconds. Data were collected at 1 Hz. […] Concentration response curves were generated using a four parameter logistical equation.
# The above described assay was operated in two modes. In the first mode (utilizing a triple add protocol), a range of concentrations of the present compounds were added to cells, followed by two single fixed concentrations of agonist (EC20 followed by EC80). If a compound acted as a potentiator, an EC50 value for potentiation of the EC20 response and a maximum extent of potentiation by the compound at this concentration of agonist was determined by non-linear curve fitting. If a compound acted as an antagonist, an IC50 value for antagonism of the EC80 response and a maximum extent of antagonism by the compound at this concentration of agonist was determined by non-linear curve fitting. In the second mode (utilizing a double add protocol), several fixed concentrations of the present compounds were added to various wells on a plate, followed by a range of concentrations of agonist for each concentration of present compound; the EC50 values for the agonist at each concentration of compound were determined by nonlinear curve fitting. A decrease in the EC50 value of the agonist with increasing concentrations of the present compounds (a leftward shift of the agonist concentration-response curve) is an indication of the degree of mGluR5 positive allosteric modulation at a given concentration of the present compound. An increase in the EC50 value of the agonist with increasing concentrations of the present compounds (a rightward shift of the agonist concentration response curve) is an indication of the degree of mGluR5 antagonism at a given concentration of the present compound. The second mode also indicates whether the present compounds also affect the maximum response to mGluR5 to agonists.
# The mGluR5 activity was determined using the metabotropic glutamate receptor activity assays in human embryonic kidney cells as described herein, wherein the human embryonic kidney cells were transfected with rat mGluR5. The mGluR5 activity data for some compounds are shown as the average of at least three experiments with the standard error in these cases. If no error is indicated for the mGluR5 activity, the values given represent the results from a single experiment or the average of two experiments. The compounds in Table 1 were synthesized with methods identical or analogous to those shown herein. The requisite starting materials were commercially available, described in the literature, or readily synthesized by one skilled in the art of organic synthesis.
# The cells were grown overnight at 37° C. in the presence of 5% CO2. […] Dye was removed, 20 μL of assay buffer was added, and the plate was incubated for 10 minutes at room temperature.
# Ca^2+ flux was measured using the Functional Drug Screening System (FDSS6000, Hamamatsu, Japan). After establishment of a fluorescence baseline for about 3 seconds, the compounds of the present invention were added to the cells, and the response in cells was measured.
# T1 sequence (P31424 21-1171 isoform P31424-2 limits assumed): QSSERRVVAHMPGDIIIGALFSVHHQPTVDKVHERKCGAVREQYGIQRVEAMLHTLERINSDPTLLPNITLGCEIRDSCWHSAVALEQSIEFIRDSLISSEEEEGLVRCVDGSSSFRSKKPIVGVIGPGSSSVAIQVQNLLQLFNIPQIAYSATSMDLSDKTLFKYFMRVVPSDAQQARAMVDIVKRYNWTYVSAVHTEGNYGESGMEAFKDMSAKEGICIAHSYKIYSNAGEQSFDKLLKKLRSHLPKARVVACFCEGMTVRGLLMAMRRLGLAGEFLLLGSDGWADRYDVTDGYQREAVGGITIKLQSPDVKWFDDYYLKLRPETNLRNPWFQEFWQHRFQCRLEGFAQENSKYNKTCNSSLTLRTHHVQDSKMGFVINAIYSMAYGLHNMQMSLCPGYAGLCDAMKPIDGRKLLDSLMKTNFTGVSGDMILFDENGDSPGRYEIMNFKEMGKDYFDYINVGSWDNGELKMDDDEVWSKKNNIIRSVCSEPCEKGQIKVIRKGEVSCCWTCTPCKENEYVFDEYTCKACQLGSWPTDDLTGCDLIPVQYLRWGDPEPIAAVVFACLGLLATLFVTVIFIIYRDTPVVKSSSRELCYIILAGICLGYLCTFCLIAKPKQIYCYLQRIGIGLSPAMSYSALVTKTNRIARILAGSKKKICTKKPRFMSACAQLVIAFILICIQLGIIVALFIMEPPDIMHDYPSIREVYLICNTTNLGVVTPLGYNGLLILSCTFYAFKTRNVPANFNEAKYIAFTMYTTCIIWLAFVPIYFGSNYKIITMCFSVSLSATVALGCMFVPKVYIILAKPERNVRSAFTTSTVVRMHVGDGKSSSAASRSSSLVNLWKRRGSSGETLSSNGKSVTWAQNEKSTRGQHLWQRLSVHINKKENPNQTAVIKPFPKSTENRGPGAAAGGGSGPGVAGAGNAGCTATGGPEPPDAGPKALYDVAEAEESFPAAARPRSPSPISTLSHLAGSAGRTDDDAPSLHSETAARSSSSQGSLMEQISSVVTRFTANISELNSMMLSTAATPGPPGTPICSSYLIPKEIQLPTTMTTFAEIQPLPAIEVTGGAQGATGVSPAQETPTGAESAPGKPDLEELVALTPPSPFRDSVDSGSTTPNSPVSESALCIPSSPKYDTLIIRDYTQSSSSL
row,SMILES,IC50 [nM]
1,Cc1ccc(Oc2cc(C)nc(C(=O)Nc3ccc(C(F)(F)F)cn3)c2)cn1,> 30000
2,Cc1cc(Oc2ccc(C(F)(F)F)nc2)cc(C(=O)Nc2cc(F)ccn2)n1,4880
3,CCc1cc(Oc2cncc(F)c2)cc(C(=O)Nc2ccc(C(F)(F)F)cn2)n1,> 30000
4,CCc1cc(Oc2cncc(F)c2)cc(C(=O)Nc2ccc(F)c(C)n2)n1,159
5,Cc1cccc(NC(=O)c2cc(Oc3cccnc3)cc(C)n2)n1,4.4
6,Cc1cc(Oc2cccnc2)cc(C(=O)Nc2cc(C#N)ccn2)n1,> 10000
7,Cc1cc(Oc2cnc(C)nc2)cc(C(=O)Nc2cccc(F)n2)n1,21
8,Cc1cc(Oc2cccnc2)cc(C(=O)Nc2cc(F)ccn2)n1,26
9,CCc1cc(Oc2cncc(F)c2)cc(C(=O)Nc2ccc(C#N)cn2)n1,108
10,Cc1cccc(NC(=O)c2cc(Oc3cnc(C)nc3)cc(C)n2)n1,20
11,Cc1cc(Oc2cccnc2)cc(C(=O)Nc2ccc(Cl)cn2)n1,5.5
12,Cc1ccc(NC(=O)c2cc(Oc3cncc(F)c3)cc(C)n2)nc1,6.8
13,Cc1cc(Oc2cnc(C)nc2)cc(C(=O)Nc2ccc(Cl)cn2)n1,209
14,CCc1cc(Oc2cncc(F)c2)cc(C(=O)Nc2cccc(C)n2)n1,13
15,CCc1cc(Oc2cncc(F)c2)cc(C(=O)Nc2cc(F)ccn2)n1,333
16,Cc1cc(Oc2cncc(C#N)c2)cc(C(=O)Nc2ccc(F)cn2)n1,5.4
17,Cc1ccc(Oc2cc(C)nc(C(=O)Nc3cccc(F)n3)c2)cn1,64
18,Cc1cc(Oc2cccnc2)cc(C(=O)Nc2ccc(C#N)cn2)n1,14
19,Cc1ccc(Oc2cc(C)nc(C(=O)Nc3cccc(Cl)n3)c2)cn1,172
20,Cc1cc(Oc2ccc(C(F)(F)F)nc2)cc(C(=O)Nc2ccc(F)cn2)n1,255
21,CCc1cccc(NC(=O)c2cc(Oc3cncc(Cl)c3)cc(C)n2)n1,14
22,Cc1cccc(NC(=O)c2cc(Oc3cncc(Cl)c3)cc(C)n2)n1,6.7
23,Cc1cc(Oc2cncc(Cl)c2)cc(C(=O)Nc2ccc(C#N)cn2)n1,11

row,SMILES,IC50 [nM]
1,Cc1cc(Oc2cccnc2)cc(C(=O)Nc2ccc(F)cn2)n1,4.1
2,Cc1cc(Oc2ccc(C(F)(F)F)nc2)cc(C(=O)Nc2cccc(F)n2)n1,397
3,CCc1cc(Oc2cncc(F)c2)cc(C(=O)Nc2cc(C)c(F)cn2)n1,> 30000
4,CCc1cccc(NC(=O)c2cc(Oc3ccc(C)nc3)cc(C)n2)n1,152
5,Cc1ccc(Oc2cc(C)nc(C(=O)Nc3ccc(Cl)cn3)c2)cn1,635
6,CCc1cc(Oc2cncc(F)c2)cc(C(=O)Nc2cccc(F)n2)n1,18
7,Cc1ccc(Oc2cc(C)nc(C(=O)Nc3cc(F)ccn3)c2)cn1,1800
8,CCc1cccc(NC(=O)c2cc(Oc3cncnc3)cc(CC)n2)n1,19
9,Cc1ccc(NC(=O)c2cc(Oc3ccc(C)nc3)cc(C)n2)nc1,966
10,Cc1cc(Oc2cccnc2)cc(C(=O)Nc2cccc(F)n2)n1,3.4
11,CCc1cc(Oc2cncc(F)c2)cc(C(=O)Nc2ccc(F)cn2)n1,11
12,Cc1ccc(Oc2cc(C)nc(C(=O)Nc3ccc(C#N)cn3)c2)cn1,693
13,CCc1cccc(NC(=O)c2cc(Oc3cccnc3)cc(C)n2)n1,13
14,Cc1cc(Oc2cccnc2)cc(C(=O)Nc2ccc(C(F)(F)F)cn2)n1,1110
15,Cc1ccc(Oc2cc(C)nc(C(=O)Nc3cccc(C)n3)c2)cn1,13
16,Cc1cc(Oc2cncc(Cl)c2)cc(C(=O)Nc2cc(C#N)ccn2)n1,548
17,CCc1cccc(NC(=O)c2cc(Oc3cncc(F)c3)cc(CC)n2)n1,468
18,CCc1cc(Oc2cncc(F)c2)cc(C(=O)Nc2cccc(Cl)n2)n1,59
19,CCc1cc(Oc2cncnc2)cc(C(=O)Nc2ccc(C(F)(F)F)cn2)n1,> 30000
20,CCc1cc(Oc2cncnc2)cc(C(=O)Nc2ccc(C)cn2)n1,27
21,Cc1cc(Oc2cncc(Cl)c2)cc(C(=O)Nc2ccc(C(F)(F)F)cn2)n1,> 10000
22,Cc1cc(Oc2cncc(Cl)c2)cc(C(=O)Nc2ccc(F)c(C)n2)n1,14
23,Cc1cc(Oc2cncc(Cl)c2)cc(C(=O)Nc2ccccn2)n1,2.2

row,SMILES,IC50 [nM]
1,Cc1ccc(NC(=O)c2cc(Oc3cncc(Cl)c3)cc(C)n2)nc1,6.4
2,CCc1cc(Oc2cncnc2)cc(C(=O)Nc2ccc(C#N)cn2)n1,156
3,CCc1cc(Oc2cncnc2)cc(C(=O)Nc2cccc(C)n2)n1,6.1
4,Cc1ccc(NC(=O)c2cc(Oc3cccnc3)cc(C)n2)nc1,10
5,Cc1cc(Oc2ccc(C(F)(F)F)nc2)cc(C(=O)Nc2ccc(Cl)cn2)n1,> 30000
6,CCc1cc(Oc2cncc(F)c2)cc(C(=O)Nc2ccc(C)cn2)n1,41
7,Cc1cc(Oc2cncc(F)c2)cc(C(=O)Nc2cccc(Cl)n2)n1,8.2
8,CCc1cc(Oc2cncc(F)c2)cc(C(=O)Nc2ccc(Cl)cn2)n1,333
9,Cc1cc(Oc2cncc(C#N)c2)cc(C(=O)Nc2cc(F)ccn2)n1,15
10,Cc1cc(Oc2cnc(C)nc2)cc(C(=O)Nc2cc(F)ccn2)n1,1890
11,Cc1ccc(NC(=O)c2cc(Oc3cncnc3)cc(C(F)F)n2)nc1,72
12,Cc1cc(Oc2cncc(Cl)c2)cc(C(=O)Nc2cccc(F)n2)n1,5.3
13,Cc1ccc(Oc2cc(C)nc(C(=O)Nc3ccc(F)c(C)n3)c2)cn1,328
14,CCc1cc(Oc2cncnc2)cc(C(=O)Nc2cccc(Cl)n2)n1,14
15,CCc1cc(Oc2cncnc2)cc(C(=O)Nc2ccc(F)c(C)n2)n1,27
16,CCc1cc(Oc2cncnc2)cc(C(=O)Nc2cc(C)c(F)cn2)n1,677
17,Cc1ccc(Oc2cc(C)nc(C(=O)Nc3cc(C#N)ccn3)c2)cn1,387
18,Cc1cc(Oc2cncc(Cl)c2)cc(C(=O)Nc2cccc(Cl)n2)n1,14
19,CCc1cc(Oc2cncnc2)cc(C(=O)Nc2ccc(F)cn2)n1,9.3
20,Cc1cccc(NC(=O)c2cc(Oc3ccc(C(F)(F)F)nc3)cc(C)n2)n1,177
21,CCc1cc(Oc2cncnc2)cc(C(=O)Nc2cccc(F)n2)n1,24
22,Cc1cc(Oc2cncc(Cl)c2)cc(C(=O)Nc2ccc(Cl)cn2)n1,18
23,CCc1cc(Oc2cncnc2)cc(C(=O)Nc2ccc(Cl)cn2)n1,25

# Tested on: not listed separately
# Assay: Rat IV/PO pharmacokinetics
# Conditions: in vivo; Rat IV/PO
# Source text: Additional physicochemical and pharmacological data are provided below in Tables 2-4 for Test Compounds 1 and 2 (Compounds […] and (2) as described herein).
SMILES,bioavailability [%],clearance [mL/min/kg],half-life [h]
Cc1cc(Oc2cncc(F)c2)cc(C(=O)Nc2ccc(F)cn2)n1 [drawing 266],67 to 75,9.15,4.7
Cc1cc(Oc2cncnc2)cc(C(=O)Nc2ccc(F)cn2)n1 [drawing 265],30 to 76,19.2,0.47

# Same assay, conditions: in vivo; Rat IV/PO; read-out: Vss
row,SMILES,Vd [L/kg]
1,Cc1cc(Oc2cncc(F)c2)cc(C(=O)Nc2ccc(F)cn2)n1 [drawing 266],1.89
2,Cc1cc(Oc2cncnc2)cc(C(=O)Nc2ccc(F)cn2)n1 [drawing 265],1.78

# Same assay, conditions: in vivo; Rat PO
SMILES,Cmax [nM],Tmax [h]
Cc1cc(Oc2cncc(F)c2)cc(C(=O)Nc2ccc(F)cn2)n1 [drawing 266],3330,1.5
Cc1cc(Oc2cncnc2)cc(C(=O)Nc2ccc(F)cn2)n1 [drawing 265],2170,0.5

# Tested on: not listed separately
# Assay: Cynomolgus monkey IV/PO pharmacokinetics
# Conditions: in vivo; Cynomolgus monkey IV/PO
SMILES,bioavailability [%],clearance [mL/min/kg],half-life [h]
Cc1cc(Oc2cncnc2)cc(C(=O)Nc2ccc(F)cn2)n1 [drawing 267],42 to 45,15.4,6.04
Cc1cc(Oc2cncc(F)c2)cc(C(=O)Nc2ccc(F)cn2)n1 [drawing 268],25 to 45,13.2,9.38

# Same assay, conditions: in vivo; Cynomolgus monkey IV/PO; read-out: Vss
row,SMILES,Vd [L/kg]
1,Cc1cc(Oc2cncnc2)cc(C(=O)Nc2ccc(F)cn2)n1 [drawing 267],2.5

# Same assay, conditions: in vivo; Cynomolgus monkey PO
SMILES,Cmax [nM],Tmax [h]
Cc1cc(Oc2cncnc2)cc(C(=O)Nc2ccc(F)cn2)n1 [drawing 267],858,3
Cc1cc(Oc2cncc(F)c2)cc(C(=O)Nc2ccc(F)cn2)n1 [drawing 268],1360,2

# Tested on: elevated plus maze
# Assay: Elevated plus maze
# Assay type: in vivo
# Conditions: 10 mg/kg
# Protocol: Test compounds (1) and (2) were administrated at the 10 mg/kg and 30 mg/kg doses described in this figure. […] Prospective In Vivo Effects
row,SMILES,total distance traveled
1,"Cc1cc(Oc2cncc(F)c2)cc(C(=O)Nc2ccc(F)cn2)n1 [Compound (1), N-(5-fluoropyridin-2-yl)-4-((5-fluoropyridin-3-yl)oxy)-6-methylpicolinamide]",statistically significant beneficial effect

# Same assay, conditions: 30 mg/kg
row,SMILES,total distance traveled
1,"Cc1cc(Oc2cncc(F)c2)cc(C(=O)Nc2ccc(F)cn2)n1 [Compound (1), N-(5-fluoropyridin-2-yl)-4-((5-fluoropyridin-3-yl)oxy)-6-methylpicolinamide]",statistically significant beneficial effect
